Laboratory results reported in ChEMBL document CHEMBL1131913 (Bioorg Med Chem Lett, 1999).

Legend:
[1] = target: T1, Prostaglandin G/H synthase 2 (Homo sapiens, UniProt P35354); experiment: In vitro inhibitory activity against Prostaglandin G/H synthase 2 (COX-2) in human
T1 sequence (P35354 whole entry): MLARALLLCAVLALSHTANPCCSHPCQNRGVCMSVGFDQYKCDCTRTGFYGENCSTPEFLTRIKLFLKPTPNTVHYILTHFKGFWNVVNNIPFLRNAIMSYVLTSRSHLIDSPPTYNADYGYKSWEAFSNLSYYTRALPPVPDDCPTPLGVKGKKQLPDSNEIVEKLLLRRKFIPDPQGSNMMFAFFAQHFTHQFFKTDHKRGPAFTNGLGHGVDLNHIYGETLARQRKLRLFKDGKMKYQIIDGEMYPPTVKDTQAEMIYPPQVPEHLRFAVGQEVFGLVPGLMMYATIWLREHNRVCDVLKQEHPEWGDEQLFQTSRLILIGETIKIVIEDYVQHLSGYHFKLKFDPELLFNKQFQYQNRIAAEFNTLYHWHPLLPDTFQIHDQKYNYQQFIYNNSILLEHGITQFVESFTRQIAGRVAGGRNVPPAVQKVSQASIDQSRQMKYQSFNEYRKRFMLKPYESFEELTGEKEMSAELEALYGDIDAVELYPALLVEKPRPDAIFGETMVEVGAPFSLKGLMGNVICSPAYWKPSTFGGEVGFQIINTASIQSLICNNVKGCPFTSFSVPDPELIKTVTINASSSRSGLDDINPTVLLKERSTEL

Ovis aries = organism: Ovis aries; experiment: Selectivity ratio of COX-1 to that of COX-2
[2] = target: T2, Prostaglandin G/H synthase 1 (Ovis aries, UniProt P05979); experiment: In vitro inhibitory activity against Prostaglandin G/H synthase 1 in sheep
T2 sequence (P05979 whole entry): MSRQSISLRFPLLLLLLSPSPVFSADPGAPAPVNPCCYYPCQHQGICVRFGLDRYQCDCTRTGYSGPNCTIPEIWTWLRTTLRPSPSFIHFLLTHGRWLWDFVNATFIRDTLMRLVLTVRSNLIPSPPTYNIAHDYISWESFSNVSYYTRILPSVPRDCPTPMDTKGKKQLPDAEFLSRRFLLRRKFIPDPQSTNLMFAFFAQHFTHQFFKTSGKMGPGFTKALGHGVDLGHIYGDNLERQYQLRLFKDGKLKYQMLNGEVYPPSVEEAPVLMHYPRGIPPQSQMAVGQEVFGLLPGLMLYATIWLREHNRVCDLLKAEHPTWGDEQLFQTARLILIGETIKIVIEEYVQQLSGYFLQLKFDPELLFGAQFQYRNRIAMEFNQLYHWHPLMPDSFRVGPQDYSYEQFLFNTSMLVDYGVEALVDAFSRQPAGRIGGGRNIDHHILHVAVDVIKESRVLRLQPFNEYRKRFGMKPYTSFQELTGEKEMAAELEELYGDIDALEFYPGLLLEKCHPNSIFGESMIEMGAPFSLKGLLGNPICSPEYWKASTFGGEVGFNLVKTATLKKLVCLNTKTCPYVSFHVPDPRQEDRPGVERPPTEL

IC50 [1] [nM]	Selectivity (Ovis aries)	IC50 [2] [nM]	Structure (SMILES)
> 100000	< 0.15	15000	CC(C)c1cccc(-c2ccc(C(C)C(=O)O)cc2F)c1 (stereo not drawn)
100	77	7700	CCOc1cc(OCC)cc(-c2ccc(C(C)C(=O)O)cc2F)c1 (stereo not drawn)
730	1.8	1300	C=Cc1cccc(-c2ccc(C(C)C(=O)O)cc2)c1 (stereo not drawn)
2400	2.4	5800	CCc1cccc(-c2ccc(C(C)C(=O)O)cc2)c1 (stereo not drawn)
70	0.9	63	COc1cc(OC)cc(-c2ccc(C(C)C(=O)O)cc2F)c1 (stereo not drawn)
320	78	25000	CCOc1cc(OCC)cc(-c2ccc(C(C)C(=O)O)cc2)c1 (stereo not drawn)
190	1	190	C=Cc1cncc(-c2ccc(C(C)C(=O)O)cc2)c1 (stereo not drawn)
21	–	–	CC(C(=O)O)c1ccc(-c2ccccc2)cc1 (stereo not drawn)
14	1	14	CCOc1cccc(-c2ccc(C(C)C(=O)O)cc2F)c1 (stereo not drawn)
330	9.4	3100	CCSc1cccc(-c2ccc(C(C)C(=O)O)cc2)c1 (stereo not drawn)
230	45	10500	Cc1cc2cc(-c3ccc(C(C)C(=O)O)cc3)ccc2[nH]1 (stereo not drawn)
19000	0.79	15000	Cc1cc(C)cc(-c2ccc(C(C)C(=O)O)cc2F)c1 (stereo not drawn)
150	9.3	1400	C=CCc1cccc(-c2ccc(C(C)C(=O)O)cc2)c1 (stereo not drawn)
670	23	15500	C/C=C/c1cncc(-c2ccc(C(C)C(=O)O)cc2)c1 (stereo not drawn)

Structure (SMILES)	IC50 [1] [nM]	Selectivity (Ovis aries)	IC50 [2] [nM]
CC(C(=O)O)c1ccc(-c2ccc3[nH]ccc3c2)cc1 (stereo not drawn)	190	0.53	100
